Structures can show the parent of a compound that is named as a salt.
Assays:
crypts from Nod1 KO mice = experiment: Organoid formation from crypts of Nod1 KO mice upon MAMP stimulation; assay type: cell-based
Excerpt: FIG. 4 illustrates the fold change in number of organoids, formed from extracted crypts, from mice knocked out for Nod1 or Nod2 genes, upon different MAMPs stimulation conditions. By definition, the fold change of the untreated organoids is set to 1, and the fold changes upon the various stimulation conditions applied are by reference to the non-stimulated organoids.
Intestinal crypts were obtained following a protocol already described (Sato et al., 2009). After isolation small intestines were isolated, flushed with cold PBS followed by 0.3% bleach and again PBS, opened longitudinally and the villi were removed. […] After severals vigourous shakings the crypts, released in the supernatant, were passed through a cell strainer 70 μm (BD Falcon), spun down at 800 rpm, resuspended in DMEM and counted. […]

intestinal crypts [1] = experiment: Organoid formation from isolated intestinal crypts upon MAMP stimulation; assay type: cell-based, mice; details: wt crypts; 10 μg/ml
Experimental: Crypts were stimulated with soluble sonicated peptidoglycan (PGN), muramyl-dipeptide (MDP), muramyl-tetrapeptide (Tetra-dap), Escherichia coli lipopolysaccharide (LPS) (each at 10 μg/ml), 10 ng/ml flagellin (Fla), 500 ng/ml synthetic lipoprotein (Pam3CSK), or 1 μM unmethylated CpG dinucleotides (CpG). The average number of non-stimulated organoids (control) is around 50, and the fold change value of the control is fixed to 1. The fold change upon the various MAMPs applied is thus by reference to non-stimulated organoids (Ctrl).
Intestinal crypts were obtained following a protocol already described (Sato et al., 2009). After isolation small intestines were isolated, flushed with cold PBS followed by 0.3% bleach and again PBS, opened longitudinally and the villi were removed. The tissues were cutted in small pieces, washed in 5 mM PBS/EDTA for 5 min, and subsequently incubated in fresh 5 mM PBS/EDTA for 30 min on ice. After severals vigourous shakings the crypts, released in the supernatant, were passed through a cell strainer 70 μm (BD Falcon), spun down at 800 rpm, resuspended in DMEM and counted. The volume corresponding to 500 crypts was distributed in two tubes per condition, and spun down again. […] The crypts were embedded in 50 μl of growth factor reduced matrigel (BD Biosciences) in a 24-well plates, incubate at 37° C. […]

intestinal crypts [2] = experiment: Proliferation index and regenerative crypts after doxorubicin injection; assay type: in vivo, mice; details: for Percentage of regenerative crypts / Relative size of crypts: 72 h after injection; for Relative size of crypts: crypt width×crypt height
Experimental: FIG. 13 illustrates the percentage of EdU-positive cells per crypt, in wild-type or Nod2 KO mice, after 2 hours of EdU (5-ethynyl-2-deoxyuridine) treatment.
For the analysis of proliferation in the tissue, 10 mg/kg EdU were injected IP and the animals were sacrificed after 2 h. The Click-iT® EdU Alexa Fluor® 488 Imaging Kit was used on paraffin slides that were processed according to the manufacturer's instructions.
The proliferation index was calculated as a percentage of EdU positive cells over the total number of cells in each crypt. Data from five mice each group were obtained and at least 50 crypts per section were examined for all histological parameters. A regenerative crypt was defined as a crypt containing more than 10 EdU positive cells per crypt. Relative crypt size was determined as crypt width×crypt height.
In order to evaluate the capacity of stem cells to survive and repair the damaged tissue upon doxorubicin-treatment, the inventors used a modified clonogenic microcolony assay (Tustison et al). At 72 h wt mice presented higher percentage of regenerative/surviving crypts than in Nod2 KO mice and this was associated with a bigger size of the crypts (Table 1).

intestinal crypts [3] = experiment: Caspase-3 positive crypts in doxorubicin-treated mice; assay type: in vivo; details: intraperitoneal, 6 hours
Experimental: FIG. 11 depicts the percentage of caspase-3 positive crypts in different conditions. The results are obtained after 6 hours.
Line 1: WT, non-treated mice. Line 2: Nod2 KO mice, non-treated. Line 3: WT mice, treated with doxorubicin during 6 hours. Line 4: Nod2 KO mice, treated with doxorubicin during 6 hours. It can be observed that the absence of Nod2 induced more death in the crypts.
B6.129P2-Lgr5^tm1(cre/ESR1)Cle/mice (Lgr5-EGFP) (Barker et al., 2007) were purchased from The Jackson Laboratories. Card4/Nod1 (Nod1 KO) mice were generated by Millenium pharmaceuticals Boston. Card15/Nod2 deficient C57BL/6J (Nod2 KO) (Barreau et al., 2007) were provided by J.-P. Hugot (Hôpital Robert Debré, Paris, France). All mice were kept in specific pathogen-free conditions. When indicated the mice were injected intraperitoneally with 200 μg of EdU (Invitrogen) 2 hrs prior to sacrifice or with 10 mg/kg doxorubicin hydrochloride (Sigma) and sacrificed at indicated time points. […]
Doxorubicin in vivo. […] The percentage of crypts presenting at least one caspase3-positve cell was counted. […] To evaluate if upon doxorubicin treatment the proliferation index was affected, the number of EdU positive cells per crypts was counted and the percentage versus the total number of cells in the crypts was calculated.

[4] = tested on: intestinal stem cells in crypts; experiment: Organoid formation under induced stress (doxorubicin or H2O2); assay type: cell-based, mice; details: 1 μM; after 4 days of treatment
Experimental: By definition, the fold change of the untreated organoids is set to 1 in the absence of any additional stress, and the fold changes upon the various stimulation or stress conditions applied are by reference to the non-stimulated non-stressed organoids.
Doxorubicin (1 μM) or H2O2 (200 μM) are added during the embedding of the crypts in the matrigel.
Intestinal crypts were obtained following a protocol already described (Sato et al., 2009). After isolation small intestines were isolated, flushed with cold PBS followed by 0.3% bleach and again PBS, opened longitudinally and the villi were removed. The tissues were cutted in small pieces, washed in 5 mM PBS/EDTA for 5 min, and subsequently incubated in fresh 5 mM PBS/EDTA for 30 min on ice. After severals vigourous shakings the crypts, released in the supernatant, were passed through a cell strainer 70 μm (BD Falcon), spun down at 800 rpm, resuspended in DMEM and counted. The volume corresponding to 500 crypts was distributed in two tubes per condition, and spun down again. […] The crypts were embedded in 50 μl of growth factor reduced matrigel (BD Biosciences) in a 24-well plates, incubate at 37° C. 20 min and overload with 500 μl of crypts medium (CM) as described previously (Sato et al 2009). […]

[5] = tested on: wt stem cells (Lgr5-EGFP); experiment: Single cells stimulation: organoids from sorted wt stem cells; assay type: cell-based, mice; details: wt stem cells alone; 500 cells per well
Experimental: FIG. 8 depicts the average number of organoids formed per well, depending on the cell types seeded in the well, without stimulation, or under stimulation with MDP. 500 cells were seeded per well in a 96-wells-plate.
Isolated crypts from Lgr5-EGFP mice or Nod2KO mice were incubated in HBSS w/o Ca^+2 and Mg^2+ supplemented with 0.3 U/ml Dispase (BD Biosciences), 0.8 U/ml DNase (Sigma) and 10 μM Y-27632 (Sigma) for 30 min at 37° C.
Dissociated cells were washed with 1% PBS/BSA and stained with CD24-APC antibody (clone M1/69 BioLegend) and EpCam Pe-Cy7 (clone G8.8 BioLegend) for 20 min at 4° C., resuspended in crypts medium supplemented with 1 μM N-acetyl-L-cystein, 10 μM Jag-1 (Anaspec) and 10 μM Y-27632 (single cells medium-SCM) and filtered with a 20 μm mesh and analyzed with MoFlo legacy (Beckman Coulter).
Singlets of viable epithelial cells were gated by negative staining for propidium iodide and positive staining for EpCam. The stem cells and Paneth cells were isolated respectively as GFP^hi+ population, and GFP^−CD24^hi+SSC^hi population.
Stem cells and Paneth cells derived from Lgr5-EGFP or Nod2KO mice were cultured alone or in different combinations. 500 cells from each condition were re-suspended in 100 μl of single cells medium with or without MAMPs and, when indicated, with 100 ng/ml wnt3 (R&D), seeded in 96-wells round-bottom plates and incubated on ice for 15 min. […]

Molecule: CC(=O)NC1C(O)OC(CO)C(O)C1OC(C)C(=O)NC(C)C(=O)NC(CCC(=O)O)C(N)=O (stereo not shown) [MDP-ctrl]
- number of organoids compared with control (in words) (crypts from Nod1 KO mice): No difference was observed

Molecule: CC(=O)NC1C(O)OC(CO)C(O)C1OC(C)C(=O)NC(C)C(=O)NC(CCC(=O)NC(CCCC(N)C(=O)O)C(=O)NC(C)C(=O)O)C(=O)O (stereo not shown) [Tetra-dap, MurNAc-Tetra(DAP)]
- number of organoids compared with non-stimulated (in words) (intestinal crypts [1]): did not observe any differences and not

Molecule: COc1cccc2c1C(=O)c1c(O)c3c(c(O)c1C2=O)C[C@@](O)(C(=O)CO)C[C@@H]3O[C@H]1C[C@H](N)[C@H](O)[C@H](C)O1 [doxorubicin, doxorubicin hydrochloride]
- Percentage of regenerative crypts (intestinal crypts [2]; Nod2 KO mice): 33.9 ± 9.4 %
- Relative size of crypts (intestinal crypts [2]; Nod2 KO mice): 2538 ± 180
- proliferation index in crypts (in words) (intestinal crypts [2]; Nod2 KO mice, following days): low rate of proliferation
- proliferation index in crypts (in words) (intestinal crypts [2]; both wt and Nod2 KO mice, 6h until 24 h after injection): decrease in the rate of proliferation
- proliferation index in crypts (in words) (intestinal crypts [2]; wt mice, 48 h until 72 h): reaching almost the same rate observed in the non-treated mice
- Percentage of regenerative crypts (intestinal crypts [2]; wt mice): 59.9 ± 6.4%
- Relative size of crypts (intestinal crypts [2]; wt mice): 3231 ± 105
- percentage of crypts with apoptotic (caspase-3 positive) cells (intestinal crypts [3]; Nod2 KO mice): 54%
- percentage of crypts with apoptotic (caspase-3 positive) cells (intestinal crypts [3]; wt mice): 30%
- less organoids after treatment [4]: 50%

B1: wnt ligand: 100 ng/ml wnt3 (R&D) added to stem cells (protein, UniProt P56703 22-355, looked up)
Proto-oncogene Wnt-3: GYPIWWSLALGQQYTSLGSQPLLCGSIPGLVPKQLRFCRNYIEIMPSVAEGVKLGIQECQHQFRGRRWNCTTIDDSLAIFGPVLDKATRESAFVHAIASAGVAFAVTRSCAEGTSTICGCDSHHKGPPGEGWKWGGCSEDADFGVLVSREFADARENRPDARSAMNKHNNEAGRTTILDHMHLKCKCHGLSGSCEVKTCWWAQPDFRAIGDFLKDKYDSASEMVVEKHRESRGWVETLRAKYSLFKPPTERDLVYYENSPNFCEPNPETGSFGTRDRTCNVTSHGIDGCDLLCCGRGHNTRTEKRKEKCHCIFHWCCYVSCQECIRIYDVHTCK
- average of organoids per well [5]: around 3 organoids per well
